This assay relates to P388 leukemia ip, CD2F1 mice, survival T/C. Briefly: NCI In Vivo Anticancer Drug Screen. Data for tumor model P388 Leukemia (intraperitoneal) in CD2F1 (CDF1) mice. To be noted: endpoint: median survival time, higher = longer survival. The procedure, abridged:
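Mice carrying the transplanted tumor received test compound or vehicle. Survival was recorded in each group, and the value is the treated-group measurement divided by that of the vehicle-treated control group.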

Where [1] appears, read: dose: 12.5 mg/kg/injection, schedule: Q01DX009 (ip), vehicle: saline.
Where [2] appears, read: dose: 25.0 mg/kg/injection, schedule: Q01DX009 (ip), vehicle: saline.
[3] abbreviates: dose: 50.0 mg/kg/injection, schedule: Q01DX009 (ip), vehicle: saline.
The mark [4] stands for this setting: dose: 50.0 mg/kg/injection, schedule: Q01DX005 (ip), vehicle: Klucel (hydroxypropylcellulose) (HPC).
Setting [5] is: dose: 100.0 mg/kg/injection, schedule: Q01DX005 (ip), vehicle: Klucel (hydroxypropylcellulose) (HPC).
Where [6] appears, read: dose: 200.0 mg/kg/injection, schedule: Q01DX005 (ip), vehicle: Klucel (hydroxypropylcellulose) (HPC).

Several values for one entry are separate records, joined by “and”; a condition that tells them apart may be missing. Identical values can stand only once. Inconclusive results and toxic doses are left out. Peptide text beside a SMILES is read from it. * marks the point of attachment. βNA = c1ccc2cc(N*)ccc2c1

As for `O=C(O)[C@@H]1[C@H]2C[C@H]3c4[nH]c5ccccc5c4CCN3C[C@@H]2CC[C@@H]1O`, the T/C (dose: 25.0 mg/kg/injection, schedule: Q01DX009 (ip), vehicle: Klucel (hydroxypropylcellulose) (HPC)) was 87 % of control; the T/C (dose: 50.0 mg/kg/injection, schedule: Q01DX009 (ip), vehicle: Klucel (hydroxypropylcellulose) (HPC)) was 88 % of control; the T/C (dose: 100.0 mg/kg/injection, schedule: Q01DX009 (ip), vehicle: Klucel (hydroxypropylcellulose) (HPC)) was 100 % of control; the T/C (dose: 200.0 mg/kg/injection, schedule: Q01DX009 (ip), vehicle: Klucel (hydroxypropylcellulose) (HPC)) is 101 % of control.

Take `CC(C)=CCc1c(C)c(O)c(C)c(C)c1O`: the T/C was 100 % of control (dose: 12.5 mg/kg/injection, schedule: Q01DX009 (ip), vehicle: distilled water + Tween-80 + alcohol); 92 % of control (dose: 25.0 mg/kg/injection, schedule: Q01DX009 (ip), vehicle: distilled water + Tween-80 + alcohol); 100 % of control (dose: 50.0 mg/kg/injection, schedule: Q01DX009 (ip), vehicle: distilled water + Tween-80 + alcohol); 95 % of control (dose: 100.0 mg/kg/injection, schedule: Q01DX009 (ip), vehicle: distilled water + Tween-80 + alcohol); 104 % of control (dose: 200.0 mg/kg/injection, schedule: Q01DX009 (ip), vehicle: distilled water + Tween-80 + alcohol).

`Cc1nn(C(=O)c2ccccn2)c(-c2ccccc2)c1N=Nc1ccc(S(=O)(=O)Nc2ncccn2)cc1`: the T/C runs as follows: (dose: 60.0 mg/kg/injection, schedule: Q01DX005 (ip), vehicle: saline with Tween-80) 102 % of control; (dose: 120.0 mg/kg/injection, schedule: Q01DX005 (ip), vehicle: saline with Tween-80) 100 % of control.

On to `CCCCCCCCCCC(C)c1ccc(S(=O)(=O)O)cc1` (centres undefined), for which the T/C (dose: 50.0 mg/kg/injection, schedule: Q01DX001 (ip), vehicle: saline) is 100 % of control; the T/C (dose: 100.0 mg/kg/injection, schedule: Q01DX001 (ip), vehicle: saline) was 90 % of control; the T/C (dose: 200.0 mg/kg/injection, schedule: Q01DX001 (ip), vehicle: saline) was 95 % of control.

Take `CCN(CC)C(C)C(=O)Nc1c(C)cccc1Cl` (centres undefined): the T/C runs as follows: under setting [1], 100 % of control; under setting [2], 90 % of control; under setting [3], 100 % of control.

For the compound `CC1(C)CC(OC(=O)CCC(=O)OC2CC(C)(C)N(O)C(C)(C)C2)CC(C)(C)N1O`, the T/C runs as follows: (dose: 50.0 mg/kg/injection, schedule: Q01DX009 (ip), vehicle: suspension in saline) 100 % of control; (dose: 100.0 mg/kg/injection, schedule: Q01DX009 (ip), vehicle: suspension in saline) 100 % of control; (dose: 200.0 mg/kg/injection, schedule: Q01DX009 (ip), vehicle: suspension in saline) 96 % of control.

In the case of `COc1cc(Br)c(C(=O)Nc2ccc(O)cc2)cc1OC`, the T/C (dose: 25.0 mg/kg/injection, schedule: Q01DX009 (ip), vehicle: other) is 103 % of control and 107 % of control; the T/C (dose: 50.0 mg/kg/injection, schedule: Q01DX009 (ip), vehicle: other) was 110 % of control; the T/C (dose: 100.0 mg/kg/injection, schedule: Q01DX009 (ip), vehicle: other) was 106 % of control and 118 % of control; the T/C (dose: 200.0 mg/kg/injection, schedule: Q01DX009 (ip), vehicle: other) is 106 % of control and 117 % of control; the T/C (dose: 400.0 mg/kg/injection, schedule: Q01DX009 (ip), vehicle: other) is 106 % of control.

For `O=NNc1ncccc1OCc1ccccc1`, the T/C (dose: 12.5 mg/kg/injection, schedule: Q01DX009 (ip), vehicle: water) was 111 % of control and 112 % of control.

Take `O=C1c2c3c(c4c(c2C(=O)c2c5c(c6c(c21)CCC6)CCC5)CCCC4)CCCC3`: the T/C (dose: 20.0 mg/kg/injection, schedule: Q01DX009 (ip), vehicle: saline with Tween-80) was 100 % of control; the T/C (dose: 40.0 mg/kg/injection, schedule: Q01DX009 (ip), vehicle: saline with Tween-80) was 99 % of control; the T/C (dose: 80.0 mg/kg/injection, schedule: Q01DX009 (ip), vehicle: saline with Tween-80) was 93 % of control.

Consider `CC(N)C(=O)NC(Cc1ccccc1)C(=O)N1CCCC1C(=O)Nc1ccc2ccccc2c1` (stereo not drawn) (H-Ala-Phe-Pro-βNA; configuration not given here), for which the T/C is, setting by setting: (dose: 50.0 mg/kg/injection, schedule: Q01DX005 (ip), vehicle: saline) 106 % of control; (dose: 100.0 mg/kg/injection, schedule: Q01DX005 (ip), vehicle: saline) 92 % of control.

`CCN(CC)CC(O)c1cc(-c2ccccc2)nc2ccc(OC)cc12` (centres undefined): the T/C reads like this: under setting [4], 100 % of control; under setting [5], 92 % of control.

`O=S(=O)(O)CNc1ccc(Cl)cc1`: the T/C (dose: 50.0 mg/kg/injection, schedule: Q01DX009 (ip), vehicle: saline with Tween-80) is 113 % of control; the T/C (dose: 100.0 mg/kg/injection, schedule: Q01DX009 (ip), vehicle: saline with Tween-80) was 113 % of control; the T/C (dose: 200.0 mg/kg/injection, schedule: Q01DX009 (ip), vehicle: saline with Tween-80) is 106 % of control.

In the case of `O=S(=O)(O)c1ccc2cccc(N=Nc3c(O)ccc4ccccc34)c2c1`, the T/C runs as follows: under setting [1], 104 % of control; under setting [2], 101 % of control; under setting [3], 93 % of control.

As to `COc1cc2c(cc1OC)[C@H](C(=O)O)C(c1ccc3c(c1)OCO3)N(C)C2=O` (some centres undefined), the T/C reads like this: under setting [4], 95 % of control; under setting [5], 103 % of control; under setting [6], 88 % of control.

Consider `N#Cc1cnc(N)[nH]c1=O`, for which the T/C (dose: 15.0 mg/kg/injection, schedule: Q01DX005 (ip), vehicle: Klucel (hydroxypropylcellulose) (HPC)) was 101 % of control; the T/C (dose: 30.0 mg/kg/injection, schedule: Q01DX005 (ip), vehicle: Klucel (hydroxypropylcellulose) (HPC)) is 97 % of control; the T/C (dose: 60.0 mg/kg/injection, schedule: Q01DX005 (ip), vehicle: Klucel (hydroxypropylcellulose) (HPC)) was 98 % of control and 99 % of control.

`CNC1C(O)C2Oc3c(cc(O)c4c3C(=O)c3cc5c(c(O)c3C4=O)C(OC3OC(C)C(OC)C(C)(OC)C3OC)CC(C)(O)C5C(=O)OC)C(C)(O2)C1O` (centres undefined): the T/C reads like this: (dose: 3.12 mg/kg/injection, schedule: Q04DX003 (ip), vehicle: other) 99 % of control; (dose: 6.25 mg/kg/injection, schedule: Q04DX003 (ip), vehicle: other) 115 % of control; (dose: 12.5 mg/kg/injection, schedule: Q04DX003 (ip), vehicle: other) 150 % of control; (dose: 25.0 mg/kg/injection, schedule: Q04DX003 (ip), vehicle: other) 160 % of control.

As for `CSC(SC)=C1C(=O)NC(=O)NC1=O`, the T/C (dose: 3.12 mg/kg/injection, schedule: Q01DX009 (ip), vehicle: saline with Tween-80) is 104 % of control; the T/C (dose: 6.25 mg/kg/injection, schedule: Q01DX009 (ip), vehicle: saline with Tween-80) is 90 % of control; the T/C (dose: 6.25 mg/kg/injection, schedule: Q01DX009 (ip), vehicle: saline) was 111 % of control; the T/C (dose: 12.5 mg/kg/injection, schedule: Q01DX009 (ip), vehicle: saline with Tween-80) was 120 % of control; the T/C under setting [1] was 111 % of control; the T/C under setting [2] is 124 % of control. The T/C runs as follows: under setting [4], 95 % of control; under setting [5], 101 % of control.

For `FC(F)(F)C1(C(F)(F)F)O[P+]2(OC(C(F)(F)F)(C(F)(F)F)c3ccccc32)c2ccccc21`, the T/C by setting is: under setting [4], 97 % of control; under setting [5], 105 % of control; under setting [6], 106 % of control.

As for `CC(CO)(CO)N1C(=O)c2cccc3cc([N+](=O)[O-])cc(c23)C1=O`, the T/C is 114 % of control (dose: 50.0 mg/kg/injection, schedule: Q01DX005 (ip), vehicle: saline with Tween-80); 105 % of control (dose: 100.0 mg/kg/injection, schedule: Q01DX005 (ip), vehicle: saline with Tween-80); 107 % of control (dose: 200.0 mg/kg/injection, schedule: Q01DX005 (ip), vehicle: saline with Tween-80).

For `Cc1nn(C(=S)S)c(C)c1N=Nc1ccc(Br)cc1`, the T/C is 113 % of control (dose: 100.0 mg/kg/injection, schedule: Q04DX002 (ip), vehicle: Klucel (hydroxypropylcellulose) (HPC)); 90 % of control (dose: 200.0 mg/kg/injection, schedule: Q04DX002 (ip), vehicle: Klucel (hydroxypropylcellulose) (HPC)); 112 % of control (dose: 400.0 mg/kg/injection, schedule: Q04DX002 (ip), vehicle: Klucel (hydroxypropylcellulose) (HPC)).

`Cc1nn(-c2ccccc2)c2oc3ccccc3c(=O)c12`: the T/C is 92 % of control (dose: 60.0 mg/kg/injection, schedule: Q01DX005 (ip), vehicle: saline); 100 % of control (dose: 120.0 mg/kg/injection, schedule: Q01DX005 (ip), vehicle: saline); 96 % of control (dose: 240.0 mg/kg/injection, schedule: Q01DX005 (ip), vehicle: saline).
